This is an account of results in patent publication US20230096051A1, “CGRP ANTIGONISTS USEFUL AS TRACER COMPOUNDS FOR POSITRON EMISSION TOMOGRAPHY” (Eli Lilly and Company, priority 2019, published 2023).

Series [1] deals with T1, hCGRP (human calcitonin gene-related peptide) receptor (Homo sapiens, UniProt O60894+Q16602).
T1 construct: Cultured SK-N-MC neuroblastoma cells that endogenously express the hCGRP receptor (ATCC); host or cells: SK-N-MC neuroblastoma cells
Briefly: Inhibition of cAMP production by CGRP receptor antagonists in SK-N-MC neuroblastoma cells (HTRF). Type of series: cell-based. The conditions noted are these: human CGRP 0.8 nM as agonist, Kb estimated as agonist-corrected IC50, read-out: hCGRP Kb ± SD. The procedure: The hCGRP (human calcitonin gene-related peptide) receptor is functionally coupled to the Gas proteins. Stimulation by hCGRP results in an increased synthesis of intracellular cAMP and can be blocked by the addition of receptor antagonists. Receptor activity is thus a reflection of the amount of cAMP present within cells which can be detected using standard in vitro technology.
Cell Culture: Cultured SK-N-MC neuroblastoma cells that endogenously express the hCGRP receptor (ATCC) are grown in Eagle's Minimum essential medium (HYCLONE™) supplemented with 10% heat-inactivated Fetal bovine serum (FBS; GIBCO®), Non-Essential Amino Acids (GIBCO®), 1 mM sodium pyruvate, 2 mM L-glutamine, 100 U/mL of penicillin, and 10 μg/mL of streptomycin to about 70% confluency. After providing fresh medium, the cells are incubated at 37° C. overnight. On the day of the assay, cells are detached using ACCUTASE® (MP Biomedicals), resuspended in assay buffer [Hank's Balanced Salt Solution/Dulbecco's phosphate-buffered saline with […] each of CaCl2 and MgCl2 mixed 1:2, 3.3 mM 4-(2-hydroxyethyl)-1-piperazineethanesulfonic acid, 0.03% bovine serum albumin, and 0.5 mM 1-methyl-3-isobutylxanthine (as inhibitor of cAMP)], and seeded 3-5K/well into 384-well, poly-D-lysine coated white plates (BD Biosciences).
Inhibition of cAMP Production: For dose-response studies, compounds are serially diluted 1:3 in dimethyl sulfoxide and then 1:10 into assay buffer. […]
Data Analysis: The amount of intracellular cAMP is quantitated using HTRF technology (Cisbio) as per vendor instructions. […] The HTRF signal is immediately detected using an ENVISION® plate reader (Perkin-Elmer) to calculate the ratio of fluorescence at […]. […] Relative […] values are calculated from the top-bottom range of the concentration response curve using a four-parameter logistic curve fitting program (ACTIVITYBASE® v5.3.1.22 or GENEDATA SCREENER® v12.0.4), and Kb values are estimated as agonist-corrected IC50 values using the equation: […]

Series [2] has as its target T2, ABCB1, human P-glycoprotein (Pgp) (Homo sapiens, UniProt P08183).
T2 construct: host or cells: MDCKII cells
Description: In vitro determination of efflux by Pgp, bi-directional transport across MDCKII cells. It counts as in vitro ADME. The conditions noted are these: MDCKII-ABCB1, 5 μM substrate, 60 min, B-A/A-B Papp ratios with and without inhibitor. The procedure:
Cell Culture: MDCKII cells stably expressing human wild-type ABCB1 (Pgp) are obtained from the Netherlands Cancer Institute (Amsterdam, The Netherlands). MDCK cells are maintained as described previously (Desai et al., Mol Pharm 10:1249-1261, 2013).
Bi-directional transport across MDCK cells: The assay is essentially conducted as described previously (Desai et al., Mol Pharm 10:1249-1261, 2013). Transport is measured in both directions across uninhibited and inhibited cell monolayers using a substrate concentration of 5 μM diluted from a 10 mM DMSO stock solution (final DMSO concentration of 0.05%) and a single 60-min time interval. […] The apparent permeability coefficients (Papp) are estimated as the slope of the mass transported per 60 min relative to the total recovered mass. The basal-to-apical (B-A)/apical-to-basal (A-B) Papp ratios are calculated in the absence or presence of inhibitor in each cell line for net efflux ratio (NER).

T1 sequence (Q16602 23-461): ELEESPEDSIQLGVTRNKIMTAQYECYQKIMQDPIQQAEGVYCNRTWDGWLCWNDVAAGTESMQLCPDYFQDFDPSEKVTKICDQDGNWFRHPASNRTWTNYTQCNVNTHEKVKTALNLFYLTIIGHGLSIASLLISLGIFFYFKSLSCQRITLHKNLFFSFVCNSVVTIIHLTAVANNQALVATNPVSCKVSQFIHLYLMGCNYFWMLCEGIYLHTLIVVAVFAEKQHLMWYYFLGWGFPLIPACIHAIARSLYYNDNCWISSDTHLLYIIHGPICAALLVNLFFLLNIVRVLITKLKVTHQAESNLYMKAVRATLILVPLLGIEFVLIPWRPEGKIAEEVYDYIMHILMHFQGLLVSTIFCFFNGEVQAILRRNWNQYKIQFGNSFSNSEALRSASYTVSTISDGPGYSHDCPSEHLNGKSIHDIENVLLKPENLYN
T1 sequence (O60894 27-148): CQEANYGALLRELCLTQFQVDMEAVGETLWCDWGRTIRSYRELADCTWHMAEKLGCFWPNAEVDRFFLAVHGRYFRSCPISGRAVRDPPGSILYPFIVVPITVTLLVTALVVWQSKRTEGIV
T2 sequence (P08183 whole entry): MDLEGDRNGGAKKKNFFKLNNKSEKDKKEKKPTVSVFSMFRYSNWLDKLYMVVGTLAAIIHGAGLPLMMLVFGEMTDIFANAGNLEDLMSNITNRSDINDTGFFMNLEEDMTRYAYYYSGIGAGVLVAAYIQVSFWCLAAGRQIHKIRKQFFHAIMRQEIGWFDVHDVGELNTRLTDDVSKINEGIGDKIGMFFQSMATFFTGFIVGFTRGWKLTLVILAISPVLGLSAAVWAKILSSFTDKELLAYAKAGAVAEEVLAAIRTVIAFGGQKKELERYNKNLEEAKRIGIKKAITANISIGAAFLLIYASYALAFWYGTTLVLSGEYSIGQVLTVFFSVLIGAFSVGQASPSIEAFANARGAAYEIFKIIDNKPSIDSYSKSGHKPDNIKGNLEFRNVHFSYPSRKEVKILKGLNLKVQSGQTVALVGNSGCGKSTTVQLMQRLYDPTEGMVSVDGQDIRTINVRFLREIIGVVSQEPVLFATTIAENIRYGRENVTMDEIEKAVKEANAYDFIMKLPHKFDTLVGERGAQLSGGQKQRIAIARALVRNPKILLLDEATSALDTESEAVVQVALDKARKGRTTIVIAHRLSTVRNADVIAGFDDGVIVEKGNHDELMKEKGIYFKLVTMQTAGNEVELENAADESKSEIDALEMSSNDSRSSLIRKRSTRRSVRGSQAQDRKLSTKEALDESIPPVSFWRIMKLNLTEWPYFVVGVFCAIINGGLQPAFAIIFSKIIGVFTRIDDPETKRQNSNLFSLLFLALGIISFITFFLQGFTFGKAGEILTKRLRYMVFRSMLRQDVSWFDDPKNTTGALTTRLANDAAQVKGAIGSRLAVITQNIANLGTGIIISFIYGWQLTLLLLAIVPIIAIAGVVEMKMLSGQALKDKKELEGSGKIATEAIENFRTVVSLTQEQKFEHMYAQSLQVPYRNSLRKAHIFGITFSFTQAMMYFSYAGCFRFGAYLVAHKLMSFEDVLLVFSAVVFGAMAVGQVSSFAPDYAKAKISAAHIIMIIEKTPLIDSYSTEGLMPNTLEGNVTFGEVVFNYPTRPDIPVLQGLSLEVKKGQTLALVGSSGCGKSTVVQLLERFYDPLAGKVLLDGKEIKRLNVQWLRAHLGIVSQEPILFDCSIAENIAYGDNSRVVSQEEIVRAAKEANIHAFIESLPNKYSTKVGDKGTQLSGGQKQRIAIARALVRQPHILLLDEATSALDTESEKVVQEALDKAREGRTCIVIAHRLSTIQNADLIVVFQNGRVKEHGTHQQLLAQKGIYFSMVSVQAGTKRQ

The term Kb denotes the equilibrium dissociation constant of an antagonist, usually derived from a functional assay. As for `Cc1cc(N2CCC2)cc(OCc2ccc([C@@H](C)[C@@]3(C)C(=O)NC[C@@H]3CF)cc2)n1` [Example 1, (3R,4R)-3-[(1R)-1-[4-[[4-(azetidin-1-yl)-6-methyl-2-pyridyl]oxymethyl]phenyl]ethyl]-4-(fluoromethyl)-3-methyl-pyrrolidin-2-one], the Kb in series [1] is 0.08 ± 0.01 nM. Also, the “net efflux ratio (NER) for efflux by Pgp” value in series [2] turned out to be 1.9.

As to `Cc1cc(N2CC(F)C2)cc(OCc2ccc([C@@H](C)[C@@]3(C)C(=O)NC[C@@H]3C)cc2)n1` [Example 2, (3R,4R)-3-[(1R)-1-[4-[[4-(3-fluoroazetidin-1-yl)-6-methyl-2-pyridyl]oxymethyl]phenyl]ethyl]-3,4-dimethyl-pyrrolidin-2-one], the Kb in series [1] is 0.14 ± 0.02 nM. In addition, the “net efflux ratio (NER) for efflux by Pgp” value in series [2] turned out to be 1.6.

In the case of `Cc1cc(N2CC(F)C2)cc(OCc2ccc([C@@H](C)[C@@]3(C)C(=O)NC[C@@H]3CF)cc2)n1` [Example 3, (3R,4R)-3-[(1R)-1-[4-[[4-(3-fluoroazetidin-1-yl)-6-methyl-2-pyridyl]oxymethyl]phenyl]ethyl]-4-(fluoromethyl)-3-methyl-pyrrolidin-2-one], in series [1], the Kb was 0.1 ± 0.02 nM.
